These results are taken from patent US20240016150A1, “MIXTURES CONTAINING METARYLPICOXAMID” (BASF SE, priority 2020, published 2024).

The subject of one experiment is Septoria tritici. As to the kind of experiment: Microtest: activity against leaf blotch on wheat. In kind it is cell-based. Conditions: single active, MTP, 405 nm, 7 days after inoculation. As to the method: The active compounds were formulated separately as a stock solution having a concentration of 10000 ppm in dimethyl sulfoxide. The stock solutions were mixed according to the ratio, pipetted onto a micro titer plate (MTP) and diluted with water to the stated concentrations. EXAMPLE 1—Activity against leaf blotch on wheat caused by Septoria tritici A spore suspension of Septoria tritici in an aqueous biomalt or yeast-bactopeptone-glycerine or DOB solution was then added. The plates were placed in a water vapor-saturated chamber at a temperature of 18° C. Using an absorption photometer, the MTPs were measured at 405 nm 7 days after the inoculation. The measured parameters were compared to the growth of the active compound-free control variant (100%) and the fungus-free blank value to determine the relative growth in % of the pathogens in the respective active compounds. These percentages were converted into efficacies. An efficacy of 0 means that the growth level of the pathogens corresponds to that of the untreated control; an efficacy of 100 means that the pathogens were not growing. The expected efficacies of active compound mixtures were determined using Colby's formula [R.S. Colby, “Calculating synergistic and antagonistic responses of herbicide combinations”, Weeds 15, 20-22 (1967)] and compared with the observed efficacies.

For another experiment, the system named is Phakopsora pachyrhizi. As to the kind of experiment: Greenhouse: curative control of soybean rust on soybeans. Conditions: single active, sprayed to run-off, soybean seedlings, assessed after 14 days. It is filed as in vivo. As for the experimental part:
EXAMPLE 1—Curative control of soybean rust on soybeans caused by Phakopsora pachyrhizi
Leaves of potted soybean seedlings were inoculated with spores of Phakopsora pachyrhizi. To ensure the success of the artificial inoculation, the plants were transferred to a humid chamber with a relative humidity of about 95% and 20 to 24 ? C for 24 h. The next day the plants were cultivated for 2 days in a greenhouse chamber at 23-27 °C and a relative humidity between 60 and 80%. Then the plants were sprayed to run-off with the previously described spray solution, containing the concentration of active ingredient or their mixture as described below. The plants were allowed to air-dry. Then the trial plants were cultivated for 14 days in a greenhouse chamber at 23-27 °C and a relative humidity between 60 and 80%. The extent of fungal attack on the leaves was visually assessed as % diseased leaf area.
The disease ratings (or diseased leaf area) were converted into efficacies.
An efficacy of 0 means that the infection level of the treated plants corresponds to that of the untreated control plants; an efficacy of 100 means that the treated plants were not infected.
The expected efficacies of active compound mixtures were determined using Colby's formula [R.S. Colby, “Calculating synergistic and antagonistic responses of herbicide combinations”, Weeds 15, 20-22 (1967)] and compared with the observed efficacies.

In the next experiment the test system is Alternaria solani. The experiment can be described thus: Microtest: activity against early blight. In kind it is cell-based. The following applies: single active, MTP, 405 nm, 7 days after inoculation. As to the method: The active compounds were formulated separately as a stock solution having a concentration of 10000 ppm in dimethyl sulfoxide. The stock solutions were mixed according to the ratio, pipetted onto a micro titer plate (MTP) and diluted with water to the stated concentrations. Example 2—Activity against early blight caused by Alternaria solani A spore suspension of Alternaria solani in an aqueous biomalt or yeast-bactopeptone-glycerine or DOB solution was then added. The plates were placed in a water vapor-saturated chamber at a temperature of 18° C. Using an absorption photometer, the MTPs were measured at 405 nm 7 days after the inoculation. The measured parameters were compared to the growth of the active compound-free control variant (100%) and the fungus-free blank value to determine the relative growth in % of the pathogens in the respective active compounds. These percentages were converted into efficacies. An efficacy of 0 means that the growth level of the pathogens corresponds to that of the untreated control; an efficacy of 100 means that the pathogens were not growing. The expected efficacies of active compound mixtures were determined using Colby's formula [R.S. Colby, “Calculating synergistic and antagonistic responses of herbicide combinations”, Weeds 15, 20-22 (1967)] and compared with the observed efficacies.

Take `O=C(NC1CCC1c1ccc(Cl)cc1Cl)c1cccnc1C(F)(F)F` (centres unmarked) [Compound II-2, N-[2-(2,4-dichlorophenyl)cyclobutyl]-2-(trifluoromethyl)pyridine-3-carboxamide]: the Observed efficacy with Septoria tritici (0.063 ppm) was 12; in the experiment with Septoria tritici (0.25 ppm) it was 49.
For the compound `CON(Cc1ccc(-c2noc(C(F)(F)F)n2)cc1)C(=O)C1CC1` [Compound II-1, N-methoxy-N-[[4-[5-(trifluoromethyl)-1,2 ,4-oxadiazol-3-yl]phenyl]methyl]cyclopropanecarboxamide], the Observed efficacy with Phakopsora pachyrhizi (0.25 ppm) is listed as 0; in the experiment on Phakopsora pachyrhizi (1 ppm), 14; with Alternaria solani (0.016 ppm), 0.
With `CCC(=O)Oc1c(OC)ccnc1C(=O)N[C@@H](C)C(=O)O[C@@H](C)[C@@H](C)c1ccccc1C` [Compound I, [(1S,2S)-1-methyl-2-(o-tolyl)propyl] (2S)-2-[(4-methoxy-3-propanoyloxy-pyridine-2-carbonyl)amino]propanoate], the Observed efficacy in the experiment on Phakopsora pachyrhizi (1 ppm) stood at 18; with Septoria tritici (4 ppm) it was 56; with Alternaria solani (1 ppm), 0.
